Test results taken from article PMC9187613 (Bioorganic chemistry, 2022).
Entries after “also recorded” stand apart in the source; their conditions may differ. Like-named read-outs stand apart in the source and are kept apart here.

What was measured:
Vero cells = test: Cytotoxicity assay; settings: for CC50: 48 h, LDH release
ZIKV NS2B-NS3 protease = ZIKV NS2B-NS3 protease (Zika virus, UniProt A0A024B7W1); test: NS2B-NS3 protease activity assay; type: biochemical; settings: for inhibition of protease activity: single 200 μM concentration, 80% threshold
ZIKV NS5 RdRp = ZIKV NS5 RdRp (Zika virus, UniProt A0A024B7W1); test: NS5 RNA-dependent RNA-polymerase activity assay; type: biochemical; settings: for inhibition of the RdRp (in words): activity assays
[1] = test system: Zika virus (ATCC strain MR 766); test: ZIKV replication in Vero cells, virus titers by plaque assay; settings: for concentration at which replication was blocked completely: 48 h; for EC50: read-out: Antiviral EC50, MOI 1, 48 h, plaque assay
DENV2 NS2B-NS3 protease = settings: cited from earlier work
[2] = test system: papain-like protease (PL^pro); settings: cited from earlier work
[3] = read-out: NS3pro IC50, 4 nM enzyme, 30 μM Bz-nKRR-AMC, 37 °C

ZIKV NS2B-NS3 protease, sequence (A0A024B7W1 1425-1464): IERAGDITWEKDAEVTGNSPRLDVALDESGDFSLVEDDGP
ZIKV NS2B-NS3 protease, sequence (A0A024B7W1 1503-1680): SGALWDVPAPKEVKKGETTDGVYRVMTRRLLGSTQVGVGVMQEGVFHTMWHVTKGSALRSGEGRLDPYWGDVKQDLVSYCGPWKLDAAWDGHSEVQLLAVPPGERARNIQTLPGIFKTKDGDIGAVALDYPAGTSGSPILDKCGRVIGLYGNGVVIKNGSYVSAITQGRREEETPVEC
ZIKV NS5 RdRp, sequence (A0A024B7W1 2826-3423): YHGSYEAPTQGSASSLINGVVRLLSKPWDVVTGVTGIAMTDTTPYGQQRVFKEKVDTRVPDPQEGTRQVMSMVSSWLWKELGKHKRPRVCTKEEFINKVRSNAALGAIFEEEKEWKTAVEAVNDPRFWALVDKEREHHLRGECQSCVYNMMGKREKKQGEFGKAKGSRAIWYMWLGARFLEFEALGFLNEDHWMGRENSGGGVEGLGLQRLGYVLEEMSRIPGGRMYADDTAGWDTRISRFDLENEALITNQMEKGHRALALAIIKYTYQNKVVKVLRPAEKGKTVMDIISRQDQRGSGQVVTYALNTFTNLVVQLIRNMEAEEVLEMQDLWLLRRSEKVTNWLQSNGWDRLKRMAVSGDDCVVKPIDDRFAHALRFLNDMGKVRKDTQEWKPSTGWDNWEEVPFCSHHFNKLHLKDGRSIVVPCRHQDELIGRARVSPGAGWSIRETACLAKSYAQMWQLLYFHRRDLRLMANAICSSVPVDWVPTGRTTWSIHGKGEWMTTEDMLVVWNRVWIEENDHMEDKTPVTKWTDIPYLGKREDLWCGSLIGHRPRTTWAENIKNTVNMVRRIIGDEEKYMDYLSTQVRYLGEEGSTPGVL

SMILES | CC50 (Vero cells) [µM] | IC50 (ZIKV NS2B-NS3 protease; [3]) [µM] | inhibition of protease activity (ZIKV NS2B-NS3 protease) [%] | inhibition of the RdRp (in words) (ZIKV NS5 RdRp) | concentration at which replication was blocked completely [1] [µM] | EC50 [1] [µM] | mode of DENV2 NS2B-NS3 protease inhibition (DENV2 NS2B-NS3 protease) | further results
COc1ccc(C(=O)/C=C/c2ccc(O)cc2)c(O)c1CC=C(C)C [4-HD, 4-hydroxyderricin] | 103 ± 14 | 47 ± 10 | > 80 | XA, but not 4HD or XA-E, inhibited | 45 | 6.6 | – | –
CC(C)=CC[C@@H]1C(C)=CC[C@@H](c2ccccc2)[C@@H]1C(=O)c1c(O)cc(O)cc1O [4-hydroxypanduratin A] | – | – | – | – | – | – | competitive inhibitory activity | –
CC(C)=CCC/C(C)=C/Cc1c(O)ccc(C(=O)/C=C/c2ccc(O)cc2)c1O [XA, Xanthoangelol] | – | – | – | – | – | – | – | cytotoxic effects (in words) (Vero cells): did not display cytotoxic; IC50 (ZIKV NS2B-NS3 protease): 50 ± 5 µM; inhibition at 200 µM (ZIKV NS2B-NS3 protease; read-out: inhibition of protease activity): > 80%; IC50 (ZIKV NS5 RdRp): 6.9 ± 0.9 µM; inhibition of polymerase activity (ZIKV NS5 RdRp; 20 μM endpoint assay): 85%; anti-ZIKV activity (in words) ([1]; concentrations exceeding 50 μM): relatively weak anti-ZIKV activity; also recorded: only weak inhibition of ZIKV growth
C=C(C)C(Cc1c(OC)ccc(C(=O)/C=C/c2ccc(O)cc2)c1O)OO (centres unmarked) [XA-E, Xanthoangelol E] | 111 ± 10 | 18 ± 5 | > 80 | XA, but not 4HD or XA-E, inhibited | 75 | 22 | – | mode of SARS-CoV PL^pro inhibition [2]: non-competitive mode; IC50 ([2]; read-out: SARS-CoV PL^pro IC50): 1.2 µM; mode of protease inhibition (ZIKV NS2B-NS3 protease; Michaelis-Menten and Lineweaver-Burk, consistent Km, decreasing Vmax): noncompetitive mode of inhibition
COc1cc(O)c(C(=O)[C@@H]2[C@H](CC=C(C)C)C(C)=CC[C@H]2c2ccccc2)c(O)c1 [panduratin A] | – | – | – | – | – | – | competitive inhibitory activity | –
